{"source": "paper PMC10710507", "about": "(Nature Communications, 2023)", "molecules": {"B1": {"name": "Y11tfmF-NT (peptide)", "peptide": "ELYENKPRRPFIL", "modifications": "para-trifluoromethyl-phenylalanine (tfmF) at position 11; pyroglutamate (pE) at position 1 as in NT", "notes": "in this molecule Tyr11 is replaced by tfmF (see substitutions); numbers count on: the mature neurotensin peptide; The new residue is the unnatural amino acid para-trifluoromethyl-phenylalanine, written F in the substitution row; also called 19F-NT; fluorinated analogue of NT; source: synthetic peptide (Fmoc solid phase synthesis, reverse-phase HPLC)"}}, "key": {"NTS1": {"system": "NTS1", "conditions": "cited from earlier work", "from_the_text": "The ECL2 of many GPCRs forms a lid over the ligand-bound orthosteric binding pocket of the receptor via interaction with the N-terminal region or ECL3 of the receptor, which can increase the affinity of the ligand by slowing down its dissociation rate[35],[37]. Although such a formation has not been confirmed experimentally for NTS1, all structures published to date on the complex of NT with NTS1 show close contacts between the N-terminal region and the ECL2 of NTS1 (PDB: 4XEE, 6YVR, 4BUO)[21],[33],[34]. However, the structure of these parts of NTS1 in the apo-state or when complexed with smal ..."}, "enNTS1-R213": {"system": "enNTS1-R213", "assay": "Ligand-observed 19F NMR / 19F STD, enNTS1-R213 complex", "assay_type": "binding, rat", "conditions": "298 K, pH 7.4", "protocol": "The peptide-receptor complex was formed by addition of a 10-fold excess of peptide to receptor. The solution was incubated on ice for one hour, followed by buffer exchange to remove free peptide in 50 mM potassium phosphate pH 7.4, 100 mM NaCl, 0.05% DDM, 50 µM EDTA, 0.02% NaN3. 100 μM of freshly formed complexes were mixed with 10 μM free receptor to ensure excess receptor. The samples were adjusted to 10% D2O, 500 μM DSS and 20 μM TFA as lock nuclei, ^1H and ^19F references, respectively.\nFor NMR experiments in the presence of Gαiq, enNTS1-R213 was incubated on ice with 5-fold Y11tfmF-NT8-13 over receptor for 30 min and then 5-fold Gαiq over receptor with incubation for another 30 min. […]\n^19F saturation transfer difference (STD) experiments were acquired using the STDDiff pulse sequence from the Bruker library. […] These were interleaved with equivalent off-resonance spectra, where the offset was set equidistant to the monitored and saturated peaks. The intensities of the monitored peak in the presence of on-resonance saturation were normalized against the spectra collected in the absence of saturation and subtracted from the intensities in the presence of the equidistant off-resonance spectra to account for off-resonance effects. […]"}, "enNTS1 [1]": {"system": "enNTS1", "assay": "Ligand-observed 19F NMR / 19F STD, enNTS1 complex", "assay_type": "binding, rat", "conditions": "298 K, pH 7.4"}, "[2]": {"system": "free fatty acid receptor 2, FFA2", "conditions": "cited from earlier work", "from_the_text": "Whether NT binds to the orthosteric binding pocket of the intermediate state or occupies different conformations in distinct pockets remains to be fully answered. […] Intermediate-state binding pockets have been attributed to a sequential activation mechanism of the free fatty acid receptor 2, FFA2, by the previously considered allosteric modulator, 4-CMTB[62]. 4-CMTB binds to the orthoste ..."}, "wt-rNTS1 [3]": {"system": "wt-rNTS1", "assay": "β-arrestin-2 recruitment BRET assay, wt-rNTS1", "assay_type": "cell-based, rat", "conditions": "HEK293T cells, β-arrestin-2-Venus, 37 °C, n = 3", "protocol": "(§1) 500,000 HEK293T cells were seeded per well in a 6-well plate in complete DMEM (10% FBS, 1% L-Glutamine, 1% penicillin-streptomycin). Cells were transfected the following day with a solution of Opti-mem and lipofectamine 2000 at a quantity of 1 µL/1 µg of DNA. For β-arrestin-2 recruitment assay cells were co-transfected with 250 ng of either pcDNA 3.1 zeo-HA-FLAG-wt-rNTS1-nLuc or pcDNA 3.1 zeo-HA-FLAG-rNTS1-R213L-nLuc and with 600 ng of pcDNA human β-arrestin-2-Venus. In G protein BRET assays, cells were co-transfected with 750 ng of pCSC-rNTS1-IRES-mCherry, pCSC-rNTS1-R213L-IRES-mCherry or pCSC-enNTS1-IRES-mCherry and with 250 ng of Gαi (for enNTS1) or Gq (for rNTS1 and rNTS1-R213L) BRET biosensor. […] The plate was then incubated at 37 °C for 10 min in a PHERAstar® FSX microplate reader (BMG LABTECH). Dual luminescence of 450/535 nm was then measured for 3 min before manually adding 10 µL of 10x ligand concentration or vehicle to respective wells before completing the time course measurement. The BRET ratio was calculated as Venus emission to nLuc emission. […] Concentration–response curves were calculated by first integrating the area under the BRET ratio over time plot using the Area Under the Curve function and then plotted against ligand concentration. […]"}, "[4]": {"assay": "19F NMR interaction with DDM micelles", "assay_type": "physicochemical", "conditions": "298 K, Supplementary Fig. 5b", "protocol": "All NMR experiments were performed on a Bruker 700 MHz Avance IIIHD spectrometer running Topspin 3.2.7 and equipped with a ^1H/^13C/^15N triple-resonance TCI cryoprobe, where the proton channel was tuned to ^19F, ~658 MHz. The 1D spectra were collected in a pulse-acquire manner at 298 K, with the carrier frequency set at −65 ppm. 512 to 2048 scans were collected per spectrum with 16 K of data points and a spectral width of 49 ppm. 2680 scans were collected for the sample of Y11tfmF-NT8-13 in complex with enNTS1 in the presence of Gαiq. The spectrum on the complex of ^19F-labelled peptides and ^19F-labelled receptor were processed in Topspin vs3.4 using, respectively, 50 Hz and 10 Hz line broadening and zero filling prior to Fourier transformation. Spectral deconvolution was performed in MNova (version: 10.0.2-15465, Mestrelab Research)."}, "wt-rNTS1 [5]": {"system": "wt-rNTS1", "assay": "G protein BRET assay, wt-rNTS1", "assay_type": "cell-based, rat", "conditions": "HEK293T cells, n = 3", "protocol": "as §1"}, "enNTS1 [6]": {"system": "enNTS1", "assay": "Cell surface competition binding assay, enNTS1", "design": "species or system rat", "conditions": "HEK293F cells, competition with 5 nM Cy5-NT8-13, 1 h, room temperature, flow cytometry, n = 4", "protocol": "100,000 HEK293F cells (Invitrogen) stably expressing receptor and the cytosolic mCherry fluorophore were suspended in complete phenol red free DMEM (10% FBS, 1% L-Glutamine, 1% penicillin-streptomycin) and were added to the relevant ligand concentrations in the presence of 5 nM Cy5-NT8-13 for enNTS1 and wt-rNTS1 or 2 nM FAM-NT8-13 for rNTS1-R213L. Cells were then gently agitated on an orbital shaker in the dark for 1 h at room temperature for ligand binding to reach a state of equilibrium. The mean fluorescence intensity of bound FAM-NT8-13 and Cy5-NT8-13 was measured with a CytoflexS (Beckman-Coulter) flow cytometer using the 525/40 and 660/20 filter, respectively. Data was then analysed using the One site – Fit Ki function on GraphPad Prism (version: 9.3.1, Graphpad Software, San Diego, CA). The data for enNTS1 and wt-NTS1 are mean of four replicates (n = 4) and the assays with rNTS1-R213L are performed in triplicates (n = 3).\nSupplementary Figure 3. Functional characterization of the NT peptides used in this study. The cell-surface binding of peptides to (a) wt-rNTS1 and enNTS1 (b) rNTS1-R213L. The competition binding curves are for NT8-13 (black circles) , Y11tfmF-NT8-13 (red triangles).\nCy5-labellled NT8-13 and FAM -labelled NT8-13 was used as a fluorescent competitor for investigating the binding. […]"}, "[7]": {"biological_target": "T1, wt-rNTS1 (wild-type rat neurotensin receptor 1) on HEK293F cells (rat, UniProt P20789 1-424)", "T1 construct": "also called wt-NTS1; source: HEK293F cells stably expressing receptor and cytosolic mCherry", "T1 sequence (P20789 whole entry)": "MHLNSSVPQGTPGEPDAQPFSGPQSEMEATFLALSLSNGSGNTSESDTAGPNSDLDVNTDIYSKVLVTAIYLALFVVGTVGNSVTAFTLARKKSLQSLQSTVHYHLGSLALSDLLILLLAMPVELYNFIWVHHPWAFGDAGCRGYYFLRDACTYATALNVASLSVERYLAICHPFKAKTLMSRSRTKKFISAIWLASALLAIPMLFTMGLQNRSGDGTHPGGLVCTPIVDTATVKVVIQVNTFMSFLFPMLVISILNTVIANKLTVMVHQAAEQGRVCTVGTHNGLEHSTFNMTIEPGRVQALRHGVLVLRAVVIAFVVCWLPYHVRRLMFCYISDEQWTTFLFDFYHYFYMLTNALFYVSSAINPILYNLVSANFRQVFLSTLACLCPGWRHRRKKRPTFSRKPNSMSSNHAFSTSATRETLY", "assay": "flow cytometry on cells; cell surface competition: 100,000 HEK293F cells stably expressing receptor, unlabelled ligand varied against 5 nM Cy5-NT8-13, 1 h at room temperature, mCherry-positive single cells, One site - Fit Ki", "conditions": "one partner purified"}}, "note": "Square brackets hold non-standard residues; d marks the D form. Ends that are not written are not given here. Phe(4-CF3) = N[C@@H](Cc1ccc(C(F)(F)F)cc1)C(=O)O", "data": [{"molecule": "COc1cccc(OC)c1-c1cc(C(=O)NC2(C(=O)O)C3CC4CC(C3)CC2C4)nn1-c1ccc(C(=O)N(C)CCCN(C)C)cc1C(C)C", "note": "(centres unmarked) [SR142948A]", "values": [{"measurement": "pharmacological class at NTS1", "setting": "NTS1", "result": "inverse agonists"}]}, {"molecule": "Y11tfmF-NT8-13: truncated version of 19F-NT (RRP[Phe(4-CF3)]IL)", "values": [{"measurement": "exchange rate constant k12 (S1 to S2)", "setting": "enNTS1-R213", "result": 0.14, "unit": "s⁻¹"}, {"measurement": "exchange rate constant k21 (S2 to S1)", "setting": "enNTS1-R213", "result": 0.26, "unit": "s⁻¹"}, {"measurement": "exchange rate constant from S1 to S2, k12", "setting": "enNTS1 [1]", "result": 1.23, "unit": "s⁻¹"}, {"measurement": "exchange rate constant from S2 to S1, k21", "setting": "enNTS1 [1]", "result": 0.08, "unit": "s⁻¹"}]}, {"molecule": "CC(C)C(C(=O)Nc1nccs1)c1ccc(Cl)cc1", "note": "(centres unmarked) [4-CMTB]", "values": [{"measurement": "binding and signalling at FFA2", "setting": "[2]", "result": "binds to the orthosteric binding pocket of FFA2, where it primarily initiates downstream orthosteric signalling followed by diffusion into an allosteric pocket"}]}, {"molecule": "COc1cccc(OC)c1-c1cc(C(=O)NC2(C(=O)O)C3CC4CC(C3)CC2C4)nn1-c1ccnc2cc(Cl)ccc12", "note": "(centres unmarked) [SR48692]", "values": [{"measurement": "pharmacological class at NTS1", "setting": "NTS1", "result": "inverse agonists"}]}, {"molecule": "Y11tfmF-NT: fluorinated analogue of NT, Tyr11 substituted with para-trifluoromethyl-phenylalanine (ELYENKPRRPFIL; para-trifluoromethyl-phenylalanine (tfmF) at position 11; pyroglutamate (pE) at position 1 as in NT)", "values": [{"measurement": "efficacy in β-arrestin recruitment BRET assay", "setting": "wt-rNTS1 [3]", "result": "equally efficacious"}, {"measurement": "effect of DDM on 19F NMR signal of the peptide", "setting": "[4]", "result": "not perturbed in the presence of DDM"}, {"measurement": "activation of wt-rNTS1", "setting": "wt-rNTS1 [5]; BRET assays", "result": "can fully activate wt-rNTS1"}, {"measurement": "efficacy in G protein BRET assay", "setting": "wt-rNTS1 [5]; Gq BRET biosensor, 37 °C", "result": "equally efficacious"}, {"measurement": "affinity for enNTS1 (effect of CF3 moiety)", "setting": "enNTS1 [6]", "result": "unaffected"}]}, {"molecule": "COc1cccc(OC)c1-c1cc(C(=O)N[C@@H](CC(C)C)C(=O)O)nn1-c1ccnc2cc(Cl)ccc12", "note": "[RTI-3a]", "values": [{"measurement": "pharmacological class at NTS1", "setting": "NTS1", "result": "partial agonist"}]}, {"molecule": "B1", "values": [{"measurement": "fold reduction of affinity against NT", "setting": "[7]", "result": 100, "unit": "fold"}]}]}
